From patent US20230116703A1, “NOVEL ERGOLINES AND METHODS OF TREATING MOOD DISORDERS” (priority 2021, published 2023)
Where two headings read alike, the source gives them in different places.

What was measured:
[1] = Metabolic stability in rat liver microsomes (RLM); conditions: for t1/2: RLM, 0.50 mg protein per mL; for microsomal CLint at 1 μM: both, rat, pooled rat liver microsomes, pH 7.4
5-HT2A receptor [2] = biological target: T1, 5-HT2A receptor (Homo sapiens, UniProt P28223); test: biochemical; assay type: binding; conditions: 1 nM [^3H]ketanserin, HEK293 stable cell line; read-out: 5-HT2A Receptor Ki (nM) ([^3H]ketanserin)
T1 construct: host or cells: HEK293
T1 sequence (P28223 whole entry): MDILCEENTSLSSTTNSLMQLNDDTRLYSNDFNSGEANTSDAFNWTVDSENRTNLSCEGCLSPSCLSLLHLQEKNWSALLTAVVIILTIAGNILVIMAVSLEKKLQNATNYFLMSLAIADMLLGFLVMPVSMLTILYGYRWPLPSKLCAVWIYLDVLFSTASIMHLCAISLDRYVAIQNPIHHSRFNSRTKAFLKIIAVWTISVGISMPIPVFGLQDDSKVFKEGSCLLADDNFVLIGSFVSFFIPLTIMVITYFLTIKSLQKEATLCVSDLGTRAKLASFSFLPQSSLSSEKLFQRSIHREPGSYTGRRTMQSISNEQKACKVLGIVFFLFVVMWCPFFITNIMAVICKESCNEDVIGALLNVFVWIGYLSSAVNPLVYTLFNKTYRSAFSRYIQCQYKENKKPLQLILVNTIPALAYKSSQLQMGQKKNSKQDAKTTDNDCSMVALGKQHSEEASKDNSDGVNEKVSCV
Method in brief: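 Affinity was measured in radioligand binding experiments using [^3H]ketanserin as the labelled ligand, following methods adapted from published procedures.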

5-HT1B receptor = 5-HT1B receptor (Homo sapiens, UniProt P28222); test: cAMP accumulation agonist assay at 5-HT1B; assay type: cell-based; conditions: cAMP, agonist; read-out: 5-HT1B EC50
Chain of 5-HT1B receptor (P28222 whole entry): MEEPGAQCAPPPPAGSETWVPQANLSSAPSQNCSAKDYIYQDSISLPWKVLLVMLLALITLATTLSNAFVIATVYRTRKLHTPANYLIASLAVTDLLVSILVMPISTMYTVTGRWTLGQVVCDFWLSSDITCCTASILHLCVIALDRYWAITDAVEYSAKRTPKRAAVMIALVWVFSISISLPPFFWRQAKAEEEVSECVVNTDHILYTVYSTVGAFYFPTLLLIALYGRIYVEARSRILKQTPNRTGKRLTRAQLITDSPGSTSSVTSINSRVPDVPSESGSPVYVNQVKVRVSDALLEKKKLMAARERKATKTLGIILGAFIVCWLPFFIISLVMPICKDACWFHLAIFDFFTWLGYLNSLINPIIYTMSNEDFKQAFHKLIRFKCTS
Method in brief: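 Agonism was measured by cAMP accumulation in stably transfected cells incubated 60 min at RT. A detection reagent was then added for 60 min at RT before reading, with an 800 nM cAMP standard in blank wells.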

Alpha1A receptor = biological target: T2, Alpha1A receptor (Homo sapiens, UniProt P35348); test: FLIPR Ca^2+ flux agonist assay at Alpha1A; assay type: cell-based
T2 sequence (P35348 1-466): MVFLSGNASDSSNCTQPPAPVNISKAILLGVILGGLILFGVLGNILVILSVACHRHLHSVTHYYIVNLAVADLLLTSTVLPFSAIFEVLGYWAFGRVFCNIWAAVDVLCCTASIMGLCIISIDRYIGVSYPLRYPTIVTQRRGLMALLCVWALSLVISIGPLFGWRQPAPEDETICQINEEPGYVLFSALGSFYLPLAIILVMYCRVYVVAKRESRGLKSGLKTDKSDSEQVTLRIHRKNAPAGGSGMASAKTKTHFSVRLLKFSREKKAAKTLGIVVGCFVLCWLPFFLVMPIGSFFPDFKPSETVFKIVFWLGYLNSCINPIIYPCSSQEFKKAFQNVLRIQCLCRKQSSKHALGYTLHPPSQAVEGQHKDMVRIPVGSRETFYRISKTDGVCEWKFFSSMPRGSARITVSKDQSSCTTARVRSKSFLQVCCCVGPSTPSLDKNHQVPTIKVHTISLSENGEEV
Description: Disclosed compounds were tested for agonist activity at several adrenergic (Alpha1A and Alpha2A) and dopamine (D1 and D2) receptor subtypes using Ca^2+ flux functional assays, with the results summarized in Table 6. Selectivity for the 5-HT2A receptor over these other targets varied depending on the specific target and compound.
Functional Assays at Adrenergic and Dopamine Receptors. Agonist activity at Alpha1A, Alpha2A, D1, and D2 receptors was determined using a FLIPR Ca^2+ flux assay at WuXi AppTec (Hong Kong) Limited according to their standard protocols. Briefly, stably transfected cells expressing the receptor of interest were grown and plated in a 384 well plate and incubated at 37° C. and 5% CO2 overnight. A solution of 250 mM probenecid in 1 mL FLIPR assay buffer was prepared fresh. This was combined with a fluorescent dye (Fluo-4 Direct™) to make a final assay concentration of 2.5 mM. Compounds were diluted 1:3.16 for 10 points and 750 nL was added to a 384 well compound plate using ECHO along with 30 μL assay buffer. The fluorescent dye was then added to the assay plate along with assay buffer to a final volume of 40 μL. The cell plate was incubated for 50 min at 37° C. and 5% CO2 and placed into the FLIPR Tetra along with the compound plate. 10 μL of references and compounds were then transferred from the compound plate into the cell plate and the fluorescent signal was read.

[3] = Metabolic stability in human liver microsomes (HLM); assay type: in vitro ADME; conditions: for t1/2: 1 μM, 0.50 mg protein per mL; for microsomal CLint at 1 μM: both sexes, human, pooled human liver microsomes, pH 7.4, 0.50 mg protein per mL
Source text: HLM Stability. Pooled HLM from adult male and female donors (Corning 452117) were used.

5-HT1A receptor = biological target: T3, 5-HT1A receptor (Homo sapiens, UniProt P08908); test: cell-based
T3 construct: host or cells: CHO cells
T3 sequence (P08908 1-422): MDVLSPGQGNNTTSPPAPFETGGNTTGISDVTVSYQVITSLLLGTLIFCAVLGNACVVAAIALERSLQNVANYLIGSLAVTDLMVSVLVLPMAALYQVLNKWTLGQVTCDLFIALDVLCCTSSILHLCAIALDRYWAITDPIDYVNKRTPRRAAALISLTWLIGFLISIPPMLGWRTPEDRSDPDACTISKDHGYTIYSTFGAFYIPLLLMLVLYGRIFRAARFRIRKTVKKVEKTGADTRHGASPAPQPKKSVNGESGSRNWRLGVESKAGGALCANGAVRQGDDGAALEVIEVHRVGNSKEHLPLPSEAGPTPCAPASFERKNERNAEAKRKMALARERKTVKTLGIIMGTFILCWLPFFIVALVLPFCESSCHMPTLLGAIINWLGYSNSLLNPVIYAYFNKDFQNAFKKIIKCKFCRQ

5-HT2B receptor = biological target: T4, 5-HT2B receptor (Homo sapiens, UniProt P41595); test: cell-based; conditions: Ca^2+ flux, agonist; read-out: 5-HT2B EC50
T4 construct: host or cells: HEK293
T4 sequence (P41595 whole entry): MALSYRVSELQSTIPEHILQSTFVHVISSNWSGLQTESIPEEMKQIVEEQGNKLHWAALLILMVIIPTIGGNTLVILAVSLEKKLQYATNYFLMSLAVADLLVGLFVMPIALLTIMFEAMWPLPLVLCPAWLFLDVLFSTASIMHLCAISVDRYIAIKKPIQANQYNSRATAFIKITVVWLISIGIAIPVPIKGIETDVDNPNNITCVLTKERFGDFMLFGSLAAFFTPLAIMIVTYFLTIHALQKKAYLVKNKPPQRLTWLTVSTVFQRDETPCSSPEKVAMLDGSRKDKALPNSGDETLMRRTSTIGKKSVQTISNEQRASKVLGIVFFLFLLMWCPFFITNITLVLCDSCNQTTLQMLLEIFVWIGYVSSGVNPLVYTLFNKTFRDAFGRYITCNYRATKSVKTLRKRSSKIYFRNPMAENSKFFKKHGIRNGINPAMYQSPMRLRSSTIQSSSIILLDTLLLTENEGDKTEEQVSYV

[4] = Metabolic stability in mouse liver microsomes (MLM); assay type: in vitro ADME; conditions: 0.50 mg protein per mL; for t1/2: MLM (CD-1), 1 μM; for microsomal CLint at 1 μM: mouse, pooled mouse liver microsomes, pH 7.4, MLM (CD-1)
Source text: MLM Stability Pooled MLM from CD-1 mice (BIOIVT M00501) were used.

5-HT2A receptor [5] = biological target: T1, 5-HT2A receptor; test: cell-based; assay type: cell-based; conditions: Ca^2+ flux, agonist; read-out: 5-HT2A EC50
C57BL/6 mice = test: Head twitch response (HTR) in mice; assay type: in vivo, mouse; conditions: SC; for ED50: 20 min, read-out: ED50 (95% CI); for ED50 / Most Efficacious Dose / Emax (95% CI): mouse HTR; for ED50 / Emax (95% CI): 20 min observation, curve fit, poor in some cases
Description: Agonists of the 5-HT2A receptor are well known to induce this effect in rodents and the potency of this HTR is correlated with hallucinogenic potency in humans.
Animals. Adult male C57BL/6 mice, aged 6-8 weeks (body weight 20-25 g) were used in this experiment. Animals were housed under controlled temperatures and 12-hour light/dark cycles (lights on between 07:00-19:00 h), with ad libitum food and water. This study was carried out in strict accordance with the requirements of the Committee for the Purpose of Control and Supervision of Experiments on Animals (CPCSEA), India. All efforts were made to minimize suffering.
Drugs and Drug Administration. Compound 1 was synthesized as described above. It was administered subcutaneously (SC) dissolved in saline vehicle at a volume of 10 mL/kg. Five doses were tested, with n=6 animals/group. Doses were calculated on the basis of the freebase.
Procedure. Mice were administered one dose of the drug and immediately placed into a small open field for behavioral observation. Animals were observed continuously for 20 mins and the number of head twitches (HTs) were counted by an observer blind to the treatment condition.
Statistical Analysis. The data points shown are the mean±standard error of the mean (SEM). Analysis was performed using GraphPad Prism 6. Curves were fit using a non-linear gaussian distribution to calculate ED50 and Emax values.
Additional disclosed compounds were tested in the mouse head twitch response (HTR) assay according to the procedure described in Example 43. […] Lastly, compounds with much larger benzyl and phenethyl substituents on the amine nitrogen (e.g., 10 and 11) were low efficacy in this assay, consistent with their lower maximal efficacy in the arrestin functional assay (see Example 41).

5-HT2A receptor [6] = biological target: T1, 5-HT2A receptor; test: PathHunter beta-arrestin recruitment assay at 5-HT2A; assay type: cell-based; conditions: for Emax / agonist type in arrestin recruitment assay (in words): 5-HT2A beta-arrestin
Description: The degree of arrestin bias varied substantially across the other compounds tested as well.
Arrestin Functional Assay at 5-HT2A. Recruitment of beta-arrestin was determined using a PathHunter assay at Eurofins DiscoverX (Fremont, Calif.) according to their standard protocols. PathHunter GPCR beta-arrestin assays take advantage of DiscoverX's proprietary Enzyme Fragment Complementation technology. The GPCR is fused in frame with a small enzyme donor fragment ProLink™ (PK) and co-expressed in cells stably expressing a fusion protein of beta-arrestin and the larger, N-terminal deletion mutant of beta-galactosidase. Activation of the GPCR (5-HT2A receptor in this case) stimulates binding of beta-arrestin to the PK-tagged GPCR and forces complementation of the two enzyme fragments, resulting in the formation of an active beta-galactosidase enzyme. This interaction leads to an increase in enzyme activity that can be measured using chemiluminescent PathHunter Detection Reagents. Briefly, PathHunter cells expressing 5-HT2A receptors were seeded in a volume of 20 μL into 384-well plates and incubated at 37° C. for the appropriate time prior to testing. […] Plates were then imaged on a microplate reader and the agonist activity was calculated using the following formula: % Activity=100%×(mean RLU of test sample−mean RLU of vehicle control)/(mean MAX control ligand−mean RLU of vehicle control), where RLU=relative light units.

human 5-HT2C receptor = biological target: T5, human 5-HT2C receptor (Homo sapiens, UniProt P28335); test: cell-based; conditions: Ca^2+ flux, agonist
T5 sequence (P28335 33-458): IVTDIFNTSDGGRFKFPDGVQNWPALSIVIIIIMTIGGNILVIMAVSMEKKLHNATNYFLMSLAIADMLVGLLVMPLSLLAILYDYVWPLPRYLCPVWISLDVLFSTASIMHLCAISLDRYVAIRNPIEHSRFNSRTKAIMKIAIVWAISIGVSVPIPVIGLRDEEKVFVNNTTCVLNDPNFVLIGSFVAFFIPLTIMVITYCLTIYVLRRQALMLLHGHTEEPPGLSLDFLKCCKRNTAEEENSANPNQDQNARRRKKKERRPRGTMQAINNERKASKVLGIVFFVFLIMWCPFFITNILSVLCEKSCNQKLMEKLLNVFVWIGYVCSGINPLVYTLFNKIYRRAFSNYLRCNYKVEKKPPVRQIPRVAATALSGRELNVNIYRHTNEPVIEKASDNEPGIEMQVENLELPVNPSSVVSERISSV

[7] = Ca^2+ flux, agonist, read-out: 5-HT1A EC50

SMILES	t1/2 [1] [min]	microsomal CLint at 1 μM [1] [µL/min/mg]	Ki (5-HT2A receptor [2]) [nM]	t1/2 [3] [min]	microsomal CLint at 1 μM [3] [µL/min/mg]	EC50 (5-HT1A receptor; [7]) [nM]	EC50 (5-HT2B receptor) [nM]	t1/2 [4] [min]	microsomal CLint at 1 μM [4] [µL/min/mg]	EC50 (5-HT2A receptor [5]) [nM]	ED50 (C57BL/6 mice) [mg/kg]	Most Efficacious Dose (C57BL/6 mice) [mg/kg]	Emax (95% CI) (C57BL/6 mice)	EC50 (5-HT2A receptor [6]) [nM]	Emax (5-HT2A receptor [6]) [%]	agonist type in arrestin recruitment assay (in words) (5-HT2A receptor [6])	EC50 (human 5-HT2C receptor) [nM]	also measured
CCN(CC)C(=O)[C@@H]1C=C2c3cccc4[nH]cc(c34)C[C@H]2N(CCC(F)(F)F)C1 [Compound 12, (6aR,9R)—N,N-diethyl-7-(3,3,3-trifluoropropyl)-4,6,6a,7,8,9-hexahydroindolo[4,3-fg]quinoline-9-carboxamide]	5.9	236	5.61	13.5	103	2140	154	2.1	655	52.9								EC50 (5-HT1B receptor): 194 nM; EC50 (Alpha1A receptor): > 3160 nM
CCC(CC)NC(=O)[C@@H]1C=C2c3cccc4[nH]cc(c34)C[C@H]2N(C)C1 [Int14, (6aR,9R)-7-methyl-N-(pentan-3-yl)-4,6,6a,7,8,9-hexahydroindolo[4,3-fg]quinoline-9-carboxamide]	37.988	36.5	0.47	17.593	78.8		> 10000	6.07	228	15.9	1.47	1	21.63 (10.59-???)	1.48	< 60	partial agonists	3.63	EC50 (5-HT1A receptor): 46 nM
CCC[C@@H](C)NC(=O)[C@@H]1C=C2c3cccc4[nH]cc(c34)C[C@H]2N(C)C1 [Int17, (6aR,9R)-7-methyl-N—((R)-pentan-2-yl)-4,6,6a,7,8,9-hexahydroindolo[4,3-fg]quinoline-9-carboxamide]	27.894	49.7	0.41	15.865	87.4	7.01	70.8	8.252	168	9.67	0.00405	0.32	4.96 (3.764-6.286)	1.19	< 60	partial agonists	2.53	# HTR at Most Efficacious Dose (C57BL/6 mice; mouse, head twitches in 20 min): 6.0
